Consider 23 molecules from patent publication US20170121344A1 (Siga Technologies, Inc., priority 2009, published 2017).

In general, EC50 refers to the midpoint of the concentration-response curve.

One assay concerns DENV-3. Nature of the assay: Viral yield assay against DENV-3 in Vero cells. Type of assay: cell-based. The note with it: Dengue virus. The gist of the method: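 Infect Vero cells with virus (MOI 0.1), add compound or DMSO, incubate at 37° C, collect progeny at 48 hours post infection, then titrate on Vero cells to obtain EC50.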
For assay [1], the system named is Dengue-2 (Strain New Guinea C). Nature of the assay: Viral yield assay against Dengue-2 in Vero cells. It is filed as cell-based, Dengue virus. To be noted: Dengue virus, read-out: Activity (EC50 in μM) DENV-2. The method, boiled down: (§1)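 Virus yield, titered on Vero cells from cultures harvested at 48 h post infection, gave the EC50. Cultures were infected at MOI 0.1 with dengue-2 and treated with compound or DMSO at 37° C. DENV-1 and DENV-4 were determined similarly.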

The next assay concerns DENV-1. Nature of the assay: Viral yield assay against DENV-1 in Vero cells. It is filed as cell-based. The note with it: Dengue virus. The method, boiled down:
as §1

The test system of the next assay is DENV-4. Nature of the assay: Viral yield assay against DENV-4 in Vero cells. The note with it: Dengue virus. It is filed as cell-based. The gist of the method:
as §1

Setting [2] is: DENV2, viral yield assay, Vero cells, MOI 0.1, 48 hours post infection.

Like-named read-outs stand apart in the source and are kept apart here. Bounds are passed on as bounds.

For the molecule `COc1cccc(-c2ccc3c(N)c(C(=O)Nc4ccc(Br)c(C)c4)sc3n2)c1` [Compound 550, 3-amino-N-(4-bromo-3-methyl-phenyl)-6-(3-methoxyphenyl)thieno[2,3-b] pyridine-2-carboxamide], the EC50 is less than 5 µM in the assay with DENV-3 (DENV3, viral yield assay); less than 5 µM in assay [1] (setting [2]); less than 5 µM in the assay on DENV-1 (DENV1, viral yield assay); less than 5 µM in the assay on DENV-4 (DENV4, viral yield assay).
Take `O=C(Nc1c(C(=O)Nc2nnc(-c3ccccc3)s2)sc2nc3c(cc12)CCCCC3)c1ccncc1` [Compound 298, 3-(isonicotinamido)-N-(5-phenyl-1,3,4-thiadiazol-2-yl)-6,7,8,9-tetrahydro-5H-cyclohepta[b]thieno[3,2-e]pyridine-2-carboxamide]: the EC50 with DENV-3 (DENV3) is less than 5 µM; in assay [1] (DENV2, Vero cells), less than 5 µM; in the assay on DENV-1 (DENV1) it was less than 5 µM; with DENV-4 (DENV4), less than 5 µM.
As for `Cc1ccc(NC(=O)c2sc3nc(-c4ccc5c(c4)OCO5)ccc3c2N)c(Br)c1` [Compound 514, 3-amino-6-(1,3-benzodioxol-5-yl)-N-(2-bromo-4-methyl-phenyl)thieno[2,3-b] pyridine-2-carboxamide], the EC50 with DENV-3 (DENV3, viral yield assay) is less than 5 µM; in assay [1] (setting [2]), less than 5 µM; in the assay with DENV-1 (DENV1, viral yield assay), less than 5 µM; in the assay with DENV-4 (DENV4, viral yield assay) it was less than 5 µM.
As to `Nc1c(C(=O)Nc2ccc(F)cc2)sc2nc(-c3ccc(Cl)cc3)ccc12` [Compound 646, 3-amino-6-(4-chlorophenyl)-N-(4-fluorophenyl)thieno[2,3-b]pyridine-2-carboxamide], the EC50 in the assay with DENV-3 (DENV3, viral yield assay) is less than 5 µM; in assay [1] (setting [2]), less than 5 µM; in the assay with DENV-1 (DENV1, viral yield assay), less than 5 µM; in the assay with DENV-4 (DENV4, viral yield assay), less than 5 µM.
With `Nc1c(C(=O)Nc2ccc3c(c2)OCCO3)sc2nc(-c3cccs3)ccc12` [Compound 415, 3-amino-N-(2,3-dihydro-1,4-benzodioxin-6-yl)-6-(2-thienyl)thieno[2,3-b] pyridine-2-carboxamide], the EC50 in the assay on DENV-3 (DENV3, viral yield assay) is less than 5 µM; in assay [1] (setting [2]), less than 5 µM; in the assay on DENV-1 (DENV1, viral yield assay), less than 5 µM; in the assay with DENV-4 (DENV4, viral yield assay), less than 5 µM.
For `Nc1c(C(=O)Nc2ccc(Cl)cc2)sc2nc(-c3ccc(Cl)cc3)ccc12` [Compound 333, 3-amino-N,6-bis(4-chlorophenyl)thieno [2,3-b]pyridine-2-carboxamide], the EC50 in the assay on DENV-3 (DENV3, viral yield assay) is less than 5 µM; in assay [1] (setting [2]) it was less than 5 µM; in the assay on DENV-1 (DENV1, viral yield assay), less than 5 µM; in the assay with DENV-4 (DENV4, viral yield assay), less than 5 µM.
Take `CN1CCc2nc3sc(C(=O)Nc4ccc(OC(F)(F)F)cc4)c(NCC(=O)O)c3cc2C1` [Compound 303, 2-[[6-methyl-2-[[4-(trifluoromethoxy)phenyl]carbamoyl]-7,8-dihydro-5H-thieno[2,3-b][1,6]naphthyridin-3-yl]amino]acetic acid]: the EC50 in the assay on DENV-3 (DENV3) is 5 to 25 µM; in assay [1] (DENV2, Vero cells), less than 5 µM; in the assay with DENV-1 (DENV1) it was 5 to 25 µM; in the assay on DENV-4 (DENV4), less than 5 µM.
`O=C(Nc1c(C(=O)Nc2nnc(-c3ccccc3)s2)sc2nc3c(cc12)CCCCC3)c1cccnc1` [Compound 297, 3-(nicotinamido)-N-(5-phenyl-1,3,4-thiadiazol-2-yl)-6,7,8,9-tetrahydro-5H-cyclohepta[b]thieno[3,2-e]pyridine-2-carboxamide]: the EC50 in the assay with DENV-3 (DENV3) was less than 5 µM; in assay [1] (DENV2, Vero cells) it was less than 5 µM; in the assay on DENV-1 (DENV1) it was less than 5 µM; in the assay on DENV-4 (DENV4) it was less than 5 µM.
As for `Nc1c(C(=O)Nc2ccc(Br)cn2)sc2nc(-c3ccc(Cl)cc3)ccc12` [Compound 335, 3-amino-N-(5-bromo-2-pyridyl)-6-(4-chlorophenyl)thieno [2,3-b]pyridine-2-carboxamide], the EC50 in the assay on DENV-3 (DENV3, viral yield assay) was less than 5 µM; in assay [1] (setting [2]), less than 5 µM; with DENV-1 (DENV1, viral yield assay) it was less than 5 µM; in the assay on DENV-4 (DENV4, viral yield assay) it was less than 5 µM.
Consider `NCC(=O)Nc1c(C(=O)Nc2nnc(-c3ccccc3)s2)sc2nc3c(cc12)CCCCC3` [Compound 296, 3-(2-aminoacetamido)-N-(5-phenyl-1,3,4-thiadiazol-2-yl)-6,7,8,9-tetrahydro-5H-cyclohepta[b]thieno[3,2-e]pyridine-2-carboxamide], for which the EC50 is less than 5 µM in the assay on DENV-3 (DENV3); less than 5 µM in assay [1] (DENV2, Vero cells); less than 5 µM in the assay with DENV-1 (DENV1); less than 5 µM with DENV-4 (DENV4).
With `COc1ccc(-c2ccc3c(N)c(C(=O)Nc4ccc(C)c(F)c4)sc3n2)cc1OC` [Compound 533, 3-amino-6-(3,4-dimethoxyphenyl)-N-(3-fluoro-4-methyl-phenyl)thieno[2,3-b] pyridine-2-carboxamide], the EC50 in the assay on DENV-3 (DENV3, viral yield assay) is less than 5 µM; in assay [1] (setting [2]), less than 5 µM; with DENV-1 (DENV1, viral yield assay), less than 5 µM; in the assay with DENV-4 (DENV4, viral yield assay), less than 5 µM.
As for `Nc1c(C(=O)Nc2ccc(Cl)cc2F)sc2nc(-c3ccc(F)cc3)ccc12` [Compound 617, 3-amino-N-(4-chloro-2-fluoro-phenyl)-6-(4-fluorophenyl)thieno[2,3-b]pyridine-2-carboxamide], the EC50 in the assay on DENV-3 (DENV3, viral yield assay) was less than 5 µM; in assay [1] (setting [2]) it was less than 5 µM; in the assay with DENV-1 (DENV1, viral yield assay), less than 5 µM; in the assay with DENV-4 (DENV4, viral yield assay) it was less than 5 µM.
For the molecule `CC(=O)c1ccc2c(N)c(C(=O)Nc3ccc(C(F)(F)F)cc3)sc2n1` [Compound 483, 6-acetyl-3-amino-N-[4-(trifluoromethyl)phenyl]thieno[2,3-b] pyridine-2-carboxamide], the EC50 was less than 5 µM with DENV-3 (DENV3, viral yield assay); less than 5 µM in assay [1] (setting [2]); less than 5 µM in the assay on DENV-1 (DENV1, viral yield assay); less than 5 µM with DENV-4 (DENV4, viral yield assay).
With `O=C(O)CN(CC(=O)O)c1c(C(=O)Nc2cccc(C(F)(F)F)c2)sc2nc(-c3cccs3)ccc12` [Compound 363, 2-[carboxymethyl-[6-(2-thienyl)-2-[[3-(trifluoromethyl)phenyl]carbamoyl]thieno[2,3-b]pyridin-3-yl]amino]acetic acid], the EC50 in the assay with DENV-3 (DENV3) is more than 25 µM; in assay [1] (DENV2, Vero cells) it was less than 5 µM; in the assay on DENV-1 (DENV1) it was 5 to 25 µM; in the assay on DENV-4 (DENV4), more than 25 µM.
Turning to `COc1ccc(-c2ccc3c(N)c(C(=O)Nc4ccc(C)cc4C)sc3n2)cc1OC` [Compound 530, 3-amino-6-(3,4-dimethoxyphenyl)-N-(2,4-dimethylphenyl)thieno[2,3-b]pyridine-2-carboxamide], the EC50 in the assay with DENV-3 (DENV3, viral yield assay) is less than 5 µM; in assay [1] (setting [2]), less than 5 µM; in the assay with DENV-1 (DENV1, viral yield assay) it was less than 5 µM; in the assay with DENV-4 (DENV4, viral yield assay), less than 5 µM.
Consider `O=C(O)CC(=O)Nc1c(C(=O)Nc2cccc(C(F)(F)F)c2)sc2nc(-c3cccs3)ccc12` [Compound 302, 3-oxo-3-[[6-(2-thienyl)-2-[[3-(trifluoromethyl)phenyl]carbamoyl]thieno[2,3-b]pyridin-3-yl]amino]propanoic acid], for which the concentration for a half-maximal effect (EC50) in the assay on DENV-3 (DENV3) is 5 to 25 µM; in assay [1] (DENV2, Vero cells), less than 5 µM; in the assay on DENV-1 (DENV1), less than 5 µM; in the assay with DENV-4 (DENV4) it was less than 5 µM.
Take `Nc1c(C(=O)Nc2ccccc2)sc2nc(-c3cccs3)ccc12` [Compound 411, 3-amino-N-phenyl-6-(2-thienyl)thieno [2,3-b]pyridin-2-carboxamide]: the EC50 in the assay on DENV-3 (DENV3, viral yield assay) is less than 5 µM; in assay [1] (DENV2, Vero, 48 h) it was less than 5 µM; in the assay on DENV-1 (DENV1, viral yield assay) it was less than 5 µM; in the assay with DENV-4 (DENV4, viral yield assay), less than 5 µM.
Consider `COc1cccc(-c2ccc3c(N)c(C(=O)Nc4ccccc4SCC(C)C)sc3n2)c1` [Compound 571, 3-amino-N-(2-isobutylsulfanylphenyl)-6-(3-methoxyphenyl)thieno[2,3-b] pyridine-2-carboxamide], for which the EC50 with DENV-3 (DENV3, viral yield assay) is less than 5 µM; in assay [1] (setting [2]), less than 5 µM; in the assay with DENV-1 (DENV1, viral yield assay) it was less than 5 µM; with DENV-4 (DENV4, viral yield assay), less than 5 µM.
Regarding `CCCCSc1ccccc1NC(=O)c1sc2nc(-c3cccc(OC)c3)ccc2c1N` [Compound 572, 3-amino-N-(2-butylsulfanylphenyl)-6-(3-methoxyphenyl)thieno[2,3-b]pyridine-2-carboxamide], the EC50 was less than 5 µM with DENV-3 (DENV3, viral yield assay); less than 5 µM in assay [1] (setting [2]); less than 5 µM in the assay on DENV-1 (DENV1, viral yield assay); less than 5 µM with DENV-4 (DENV4, viral yield assay).
Turning to `Nc1c(C(=O)Nc2ccccc2C(F)(F)F)sc2nc(-c3cccs3)ccc12` [Compound 437, 3-amino-6-(2-thienyl)-N-[2-(trilfuoromethyl)phenyl]thieno[2,3-b] pyridine-2-carboxamide], the EC50 in the assay on DENV-3 (DENV3, viral yield assay) is less than 5 µM; in assay [1] (setting [2]) it was less than 5 µM; with DENV-1 (DENV1, viral yield assay), less than 5 µM; with DENV-4 (DENV4, viral yield assay) it was less than 5 µM.
Consider `Nc1c(C(=O)Nc2ccc(OC(F)(F)F)cc2)sc2nc(-c3ccc(Cl)cc3)ccc12` [Compound 331, 3-amino-6-(4-chlorophenyl)-N-[4-(trifluoromethoxy)phenyl]thieno[2,3-b]pyridine-2-carboxamide], for which the EC50 is less than 5 µM in the assay with DENV-3 (DENV3, viral yield assay); less than 5 µM in assay [1] (setting [2]); less than 5 µM in the assay with DENV-1 (DENV1, viral yield assay); 5 to 25 µM with DENV-4 (DENV4, viral yield assay).
In the case of `Nc1c(C(=O)Nc2ccc(OC(F)(F)F)cc2)sc2nc(-c3cccc(OC(F)F)c3)ccc12` [Compound 339, 3-amino-6-[3-(difluoromethoxy)phenyl]-N-[4-(trifluoromethoxy)phenyl]thieno[2,3-b]pyridine-2-carboxamide], the EC50 with DENV-3 (DENV3, viral yield assay) was less than 5 µM; in assay [1] (setting [2]), less than 5 µM; in the assay with DENV-1 (DENV1, viral yield assay), less than 5 µM; in the assay on DENV-4 (DENV4, viral yield assay) it was less than 5 µM.
For the molecule `Cc1cccc2cc3c(N)c(C(=O)Nc4cccc(C(F)(F)F)c4)sc3nc12` [Compound 364, 3-amino-8-methyl-N-(3-(trifluoromethyl)phenyl)thieno [2,3-b]quinoline-2-carboxamide], the EC50 is less than 5 µM in the assay on DENV-3 (DENV3, viral yield assay); less than 5 µM in assay [1] (setting [2]); less than 5 µM in the assay with DENV-1 (DENV1, viral yield assay); less than 5 µM in the assay on DENV-4 (DENV4, viral yield assay).
